The values that follow come from the supplement of paper PMC9663587.

Compound in the first assay: C=CC(=O)Nc1ccc(C(=O)Nc2[nH]nc3c2CN(C(=O)N[C@H](CN(C)C)c2ccccc2)C3(C)C)cc1 [YKL-5-124]
Put plainly: GR value, 72 h; higher = faster growth (1 = untreated, <0 = killing).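 Also: breast cancer and non-malignant breast epithelial lines, nine half-log doses, viable cells counted by Hoechst and LIVE/DEAD dye imaging versus time-zero plates and DMSO controls.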 As to conditions: 0.3162 µM.
With SUM52PE, the GR value stood at 0.391 GR.
In the case of SUM149, the GR value stood at 0.114 GR.
Still for that read-out and setting: then SUM159, with 0.0731 GR.
Turning to SUM190PT, the GR value is 0.0489 GR.
Turning to SUM229PE, the GR value was 0.225 GR.
Regarding T47D, the GR value came out at 0.0978 GR.

The assay is the same for the next values; noted with them: 1 µM.
Consider SUM52PE, for which the GR value is 0.364 GR.
For the cell line SUM149, the GR value came out at 0.0596 GR.
SUM159: the GR value turned out to be 0.0819 GR.
On to SUM190PT, for which the GR value worked out at 0.154 GR.
Same read-out and setting: under SUM229PE stands 0.238 GR.
As to T47D, the GR value was determined as 0.082 GR.

Still in this assay, the particulars now being: 3.162 µM.
For SUM52PE, the GR value worked out at 0.227 GR.
For SUM149, the GR value worked out at 0.0431 GR.
With SUM159, the GR value worked out at 0.0501 GR.
SUM190PT: the GR value was 0.102 GR.
Still for that read-out and setting: then SUM229PE, with 0.17 GR.
The same measure, in the same setting: under T47D stands 0.0131 GR.

The assay is the same for the next values; noted with them: 10 µM.
Regarding SUM52PE, the GR value came to 0.0112 GR.
On to SUM149, for which the GR value was -0.104 GR.
As to SUM159, the GR value is -0.146 GR.
In the case of SUM190PT, the GR value was -0.42 GR.
Take SUM229PE: the GR value is -0.0733 GR.
The same measure, in the same setting: under T47D stands -0.175 GR.

Compound in a further assay: CC(=O)c1c(C)c2cnc(Nc3ccc(N4CCNCC4)cn3)nc2n(C2CCCC2)c1=O
The assay is described as above. As to conditions: 0.0003162 µM.
For SUM52PE, the GR value was found to be 1.1 GR.
Consider SUM149, for which the GR value worked out at 1.02 GR.
On to SUM159, for which the GR value was 1 GR.
Turning to SUM190PT, the GR value came out at 0.986 GR.
Turning to SUM229PE, the GR value was found to be 0.988 GR.
For T47D, the GR value is 1.07 GR.

Staying with this assay, now noted: 0.001 µM.
For the cell line SUM52PE, the GR value is 1.06 GR.
For SUM149, the GR value amounted to 1.03 GR.
SUM159: the GR value was 0.988 GR.
On to SUM190PT, for which the GR value worked out at 1.02 GR.
Same read-out and setting: under SUM229PE stands 0.983 GR; under T47D, 1.08 GR.

Staying with this assay, now noted: 0.003162 µM.
As to SUM52PE, the GR value came to 1.01 GR.
Regarding SUM149, the GR value was found to be 0.983 GR.
On the same count and under the same terms, then SUM159, with 0.987 GR; and SUM190PT, with 1.09 GR; and SUM229PE, with 0.933 GR.
Same read-out and setting: under T47D stands 1.04 GR.

Staying with this assay, now noted: 0.01 µM.
With SUM52PE, the GR value turned out to be 0.97 GR.
For SUM149, the GR value was 0.981 GR.
On to SUM159, for which the GR value is 0.947 GR.
As to SUM190PT, the GR value came to 0.949 GR.
For SUM229PE, the GR value was 0.906 GR.
As to T47D, the GR value came to 0.782 GR.

Still in this assay, the particulars now being: 0.03162 µM.
As to SUM52PE, the GR value was found to be 0.863 GR.
For the cell line SUM149, the GR value came out at 0.82 GR.
In the case of SUM159, the GR value was found to be 0.881 GR.
For SUM190PT, the GR value worked out at 0.62 GR.
Turning to SUM229PE, the GR value came out at 0.848 GR.
For T47D, the GR value worked out at 0.478 GR.

Still in this assay, the particulars now being: 0.1 µM.
SUM52PE: the GR value came to 0.695 GR.
For SUM149, the GR value was 0.701 GR.
SUM159: the GR value was 0.755 GR.
SUM190PT: the GR value is 0.316 GR.
Regarding SUM229PE, the GR value was 0.711 GR.
Take T47D: the GR value came to 0.203 GR.

The assay is the same for the next values; noted with them: 0.3162 µM.
With SUM52PE, the GR value is 0.607 GR.
The same measure, in the same setting: then SUM149, with 0.623 GR; and SUM159, with 0.64 GR; and SUM190PT, with 0.35 GR.
SUM229PE: the GR value is 0.563 GR.
As to T47D, the GR value amounted to 0.177 GR.

Still in this assay, the particulars now being: 1 µM.
As for SUM52PE, the GR value was found to be 0.475 GR.
SUM149: the GR value came to 0.567 GR.
For the cell line SUM159, the GR value came out at 0.574 GR.
The same measure, in the same setting: then SUM190PT, with 0.336 GR.
Consider SUM229PE, for which the GR value was 0.536 GR.
Take T47D: the GR value is 0.122 GR.

The assay is the same for the next values; noted with them: 3.162 µM.
On to SUM52PE, for which the GR value was 0.348 GR.
As for SUM149, the GR value was 0.485 GR.
Consider SUM159, for which the GR value came out at 0.468 GR.
For the cell line SUM190PT, the GR value turned out to be 0.378 GR.
On the same count and under the same terms, then SUM229PE, with 0.392 GR; and T47D, with 0.132 GR.

Compound in the next assay: CC(=O)c1c(C)c2cnc(Nc3ccc(N4CCN(CCOCCOCCOCCNC(=O)COc5cccc6c5C(=O)N(C5CCC(=O)NC5=O)C6=O)CC4)cn3)nc2n(C2CCCC2)c1=O [BSJ-03-123]
The description is as above. As to conditions: 0.001 µM.
Take SUM52PE: the GR value is 1.02 GR.
Turning to SUM149, the GR value stood at 0.996 GR.
Regarding SUM159, the GR value is 0.918 GR.
As to SUM190PT, the GR value is 0.831 GR.
The same measure, in the same setting: under SUM229PE stands 0.887 GR; under T47D, 0.505 GR.

The same assay, now with this note: 0.003162 µM.
On to SUM52PE, for which the GR value is 0.851 GR.
As to SUM149, the GR value was 0.91 GR.
For SUM159, the GR value came to 0.925 GR.
In the case of SUM190PT, the GR value turned out to be 0.729 GR.
In the case of SUM229PE, the GR value was determined as 0.881 GR.
Turning to T47D, the GR value was found to be 0.473 GR.

The same assay, now with this note: 0.01 µM.
For SUM52PE, the GR value amounted to 0.868 GR.
Turning to SUM149, the GR value amounted to 0.904 GR.
With SUM159, the GR value amounted to 0.897 GR.
As to SUM190PT, the GR value is 0.533 GR.
In the case of SUM229PE, the GR value stood at 0.87 GR.
The same measure, in the same setting: then T47D, with 0.28 GR.

The same assay, now with this note: 0.03162 µM.
On to SUM52PE, for which the GR value turned out to be 0.883 GR.
With SUM149, the GR value was found to be 0.794 GR.
The same measure, in the same setting: under SUM159 stands 0.826 GR.
Regarding SUM190PT, the GR value stood at 0.491 GR.
In the case of SUM229PE, the GR value was 0.857 GR.
Still for that read-out and setting: then T47D, with 0.231 GR.

The same assay, now with this note: 0.1 µM.
Turning to SUM52PE, the GR value was 0.862 GR.
SUM149: the GR value is 0.81 GR.
SUM159: the GR value was 0.826 GR.
In the case of SUM190PT, the GR value came to 0.451 GR.
The same measure, in the same setting: then SUM229PE, with 0.758 GR; and T47D, with 0.228 GR.

The assay is the same for the next values; noted with them: 0.3162 µM.
Regarding SUM52PE, the GR value turned out to be 0.78 GR.
SUM149: the GR value turned out to be 0.72 GR.
Still for that read-out and setting: then SUM159, with 0.797 GR.
Take SUM190PT: the GR value amounted to 0.371 GR.
In the case of SUM229PE, the GR value is 0.785 GR.
The same measure, in the same setting: under T47D stands 0.203 GR.

Still in this assay, the particulars now being: 1 µM.
For SUM52PE, the GR value was determined as 0.657 GR.
Take SUM149: the GR value was 0.579 GR.
Still for that read-out and setting: under SUM159 stands 0.687 GR.
For SUM190PT, the GR value was 0.396 GR.
Take SUM229PE: the GR value amounted to 0.568 GR.
Consider T47D, for which the GR value worked out at 0.115 GR.

Staying with this assay, now noted: 3.162 µM.
Regarding SUM52PE, the GR value amounted to 0.634 GR.
On the same count and under the same terms, then SUM149, with 0.428 GR; and SUM159, with 0.526 GR.
